In patent US20260345584A1, “METHODS AND PHARMACEUTICAL COMPOSITIONS FOR TREATING CHEMOTHERAPY-INDUCED PERIPHERAL NEUROPATHY WITH EG5 INHIBITORS” (UNIVERSITY OF MIAMI, priority 2023, published 2026):

Experiments:
[1] = test system: microtubule detyrosination in keratinocytes; assay: GluTub immunofluorescence of detyrosinated microtubules in zebrafish caudal fin keratinocytes; type: in vivo; settings: 96 hr
Procedure: (§1) The stock solution was divided into 20-30 μl aliquots and stored at −20 °C until use (maximal 6 months). Immediately prior to use, paclitaxel was diluted in Ringer's solution and added to dechorionated larval zebrafish. The larval fish were placed individually or in small groups into wells of a 12-well plate containing the treatment solutions. The control group was 0.05% DMSO. Plates were incubated at 28.5 °C and protected from light. Treatment lengths are indicated in the Drawings, Description of the Drawings, and Examples where appropriate. […] EMD534085, Eg5 inhibitor (MedChemExpress, Cat. No. HY-15000) was diluted in 100% DMSO to make a 10 mM stock solution and stored at −20 °C. […] The solutions were exchanged every 48 hr.
Larval fish were transferred into […] glass vials and fixed in 4% paraformaldehyde (PFA)/1× Phosphate-buffered saline (PBS) for 1.5 hr at room temperature, with gentle rocking. Following a 5-minute incubation in 1×PBS+0.1% Tween-20 (PBST), zebrafish were permeabilized in 1×PBS+0.1% Triton X-100 for 10-30 min. Larval fish were transferred into 2 ml reaction tubes and incubated in blocking buffer (1×PBST+5% BSA) for 30 min at room temperature, with rocking. Larval fish were further incubated overnight in antibody solution (Millipore Sigma, Cat. No. AB3201, 1:300 rabbit anti-GluTub; Sigma, Cat No. T6793, 1:500 mouse anti-acetylated tubulin) in blocking buffer at 4 °C, on a rotator. The next morning, larval fish were transferred into 6-well plates and washed 4×15 min in 1×PBST at room temperature, with rocking. This was followed by incubation in secondary antibody (goat anti-rabbit Cy5, Abcam, Cat. No. ab97077; goat anti-mouse Cy3, Abcam, Cat. No. ab97035) and 1:10,000 Hoechst 33342 (ThermoFisher Scientific, Cat. No. 62249, 20 mM solution) in blocking buffer for 1 hr at room temperature, with rocking. Fish were covered to avoid bleaching. […]
Fluorescence intensities were measured using the Imaris MATLAB plugin or Fiji. A line was typically placed over the region of interest and the fluorescence automatically quantified. The values were normalized to nuclear (Hoechst33342) fluorescence intensities within the same fish and region to obtain an intensity ratio.
Stabilized microtubules undergo a modification whereby the terminal tyrosine residue was removed, leading to detyrosination (dMT) (Roll-Mecak et al., 2020, Developmental cell 54: 7-20), which was associated with particularly long-term stabilized microtubule populations (Khawaja et al., 1988, The Journal of cell biology 106: 141-149). Exposure of the penultimate glutamate residue can be detected using a GluTub antibody. […]

[2] = test system: caudal fin keratinocytes (dfMTs); assay: dfMT formation (detyrosinated fasciculated looped microtubules) in zebrafish caudal fin keratinocytes; type: in vivo
Procedure: as §1
(§2) Larval fish were transferred into […] glass vials and fixed in 4% paraformaldehyde (PFA)/1× Phosphate-buffered saline (PBS) for 1.5 hr at room temperature, with gentle rocking. Following a 5-minute incubation in 1×PBS+0.1% Tween-20 (PBST), zebrafish were permeabilized in 1×PBS+0.1% Triton X-100 for 10-30 min. Larval fish were transferred into 2 ml reaction tubes and incubated in blocking buffer (1×PBST+5% BSA) for 30 min at room temperature, with rocking. Larval fish were further incubated overnight in antibody solution (Millipore Sigma, Cat. No. AB3201, 1:300 rabbit anti-GluTub; Sigma, Cat No. T6793, 1:500 mouse anti-acetylated tubulin) in blocking buffer at 4 °C, on a rotator. The next morning, larval fish were transferred into 6-well plates and washed 4×15 min in 1×PBST at room temperature, with rocking. This was followed by incubation in secondary antibody (goat anti-rabbit Cy5, Abcam, Cat. No. ab97077; goat anti-mouse Cy3, Abcam, Cat. No. ab97035) and 1:10,000 Hoechst 33342 (ThermoFisher Scientific, Cat. No. 62249, 20 mM solution) in blocking buffer for 1 hr at room temperature, with rocking. Fish were covered to avoid bleaching. Fish were washed for 4×15 min in 1×PBST at room temperature, with rocking, and immediately mounted for imaging on glass bottom petri dishes (Spectrum Laboratory Products, Cat. No. 750-10403-UE) using 1% agarose (Thermo Fisher Scientific, Cat. No. 16520050). A 1:200 dilution was used for mouse alpha-tubulin antibody (Proteintech, Cat. No. 66031-1) and a 1:1,000 dilution of donkey anti-mouse IgG Alexa488 (ThermoFisher Scientific, Cat. No. A-21202) for secondary detection. For Nox1 immunostaining, a 1:300 dilution of primary antibody (Anti-NOX1 Rabbit Polyclonal Antibody, Avantar, Cat. No. 102164-796) and a 1:1,000 dilution of secondary goat anti-rabbit Cy2 (Abcam, Cat. No. ab6940) antibody was used. Eg5 antibody (Abcam, Cat. No. 61199) was used at a 1:100 and secondary goat anti-rabbit Cy2 (Abcam, Cat. No. ab6940) at 1:1,000 dilution.
CRISPR oligos targeting kif11 were designed using the IDT CRISPR design tool (https://www.idtdna.com/site/order/designtool/index/CRISPR_CUSTOM). The oligo (5′-[…] (SEQ ID NO: 21) was designed to anneal within exon 5 of 23 exons total in zebrafish kif11 with expected mutations ~ position 270 bp in the sequenced region using the following primers for PCR amplification: Fwd 5′-[…]-3′ (SEQ ID NO: 22) and Rev 5′-[…]-3′ (SEQ ID NO: 23). The forward primer was used for sequencing and yielded deletions in transiently injected embryos, as shown in example below in which single zebrafish were sequenced (FIG. 10).
The CRISPR oligo was injected using the Alt-R system (IDT, https://www.idtdna.com/pages/technology/crispr/crispr-genome-editing/Alt-R-systems/cas9), which has provided highly reliable and efficient zebrafish knockout results as used herein. The IDT-recommended protocol (below) was used for CRISPR oligo preparations. Fertilized eggs were injected ~15 minutes post fertilization with CRISPR oligos to ensure maximal efficiency.
Cell counting in the caudal fin was performed in three 100 μm^2 boxes in the dorsal, medial and ventral caudal fin (~100 μm from the edge). […]

cutaneous sensory axons = assay: Axon branch number in caudal fin (acetylated tubulin staining); type: in vivo, zebrafish
Procedure: as §1, §2
Axon branch number quantifications were performed by drawing a 50 μm line across the dorsal, medial, and ventral caudal fin edge region at a distance of 100 μm parallel to the fin edge (which was determined to be the most reliable region to quantify distal branch numbers). Axons traversing this line were counted and averaged per treatment group. Axonal fluorescence measurements were taken using the Imaris Spots function by manually placing spots along the axon and using the fluorescence intensity profile measurements MatLab tool.
Stretching was performed after 96 hr treatment, followed by 2 hr post-stretch fixation, and staining for detection of acetylated tubulin in axons.
To further validate Eg5 as the pharmacological target of EMD534085 in axon regeneration, zebrafish injected with kif11 CRISPR oligo were also analyzed.

Eg5 = Eg5 immunofluorescence in zebrafish caudal fin; type: in vivo; settings: transient kif11 CRISPR, exon 5
Procedure: as §1
Larval fish were transferred into […] glass vials and fixed in 4% paraformaldehyde (PFA)/1× Phosphate-buffered saline (PBS) for 1.5 hr at room temperature, with gentle rocking. Following a 5-minute incubation in 1×PBS+0.1% Tween-20 (PBST), zebrafish were permeabilized in 1×PBS+0.1% Triton X-100 for 10-30 min. Larval fish were transferred into 2 ml reaction tubes and incubated in blocking buffer (1×PBST+5% BSA) for 30 min at room temperature, with rocking. […]

[3] = test system: CIPN caused by bortezomib; settings: mice (Bobylev et al., 2017); cited from earlier work
mouse DRG neurons = settings: cultured mouse DRG neurons (Haque et al., 2004); cited from earlier work

Molecule: kif11 CRISPR: CRISPR oligo (5′-AGGTGACCGATCACCCAATG (SEQ ID NO: 21)) targeting exon 5 of zebrafish kif11, injected as Cas9 ribonucleoprotein (injected as Cas9 ribonucleoprotein, chemistry not given here)
- normalized detyrosination fluorescence intensity ([1]; kif11 CRISPR + paclitaxel): 0.85±0.11
- normalized detyrosination fluorescence intensity ([1]; kif11 CRISPR+vehicle): 1.12±0.2
- number of keratinocytes per animal with dfMTs ([2]; kif11 CRISPR+22 μM paclitaxel): 0.29±0.16
- percent animals with dfMTs ([2]; kif11 CRISPR+22 μM paclitaxel): 25%
- number of keratinocytes per animal with dfMTs ([2]; kif11 CRISPR+vehicle): 0±0
- percent animals with dfMTs ([2]; kif11 CRISPR+vehicle): 0%
- axon branch number (cutaneous sensory axons; kif11-CRISPR+22 μM paclitaxel): 12.83±0.96 branches/50 μm
- axon branch number (cutaneous sensory axons; kif11-CRISPR+vehicle): 12.08±0.68 branches/50 μm
- Eg5 protein expression (Eg5): eliminated Eg5 protein expression

Molecule: CCOC(=O)C1=C(C)NC(=S)NC1c1cccc(O)c1 (centres unmarked) [monastrol]
- effect on CIPN caused by bortezomib [3]: shown to alleviate CIPN caused by bortezomib
- neurite outgrowth (mouse DRG neurons): promotes neurite outgrowth
